Data: patent US20080114031A1, “MONOSACCHARIDE DERIVATIVES” (priority 2006, published 2008)
pIC50: −log10 of the molar value.

How the values were obtained:
[1] = test system: LTB4 release; assay: A23187 Induced LTB4 Release; assay type: cell-based; conditions: Neutrophil; neutrophils from healthy human donors, 1 hour with test drug, 0.3 μg/ml A23187 for 10 min, LTB4 ELISA; range stated for the group of compounds tested; read-out: A123187 induced LTB4 release IC50
Experimental: The compounds of the present invention are tested in one or both of the assays described herein. Standard assays are used to evaluate activity of compounds in present invention on inflammatory cells. Attenuation of agonist-induced release of lipid mediator of neutrophil chemotaxis, leukotriene B4 (LTB4), is used to evaluate Inhibitory effect on neutrophils.
Venous blood was collected from healthy human donors using heparin as an anti-coagulant. Neutrophils were isolated from freshly drawn blood after dextran sedimentation and ficoll separation (Eur J Biochem. 169, 175, 1987), 180 μl of the of neutrophil suspension (0.2×10^6 cells/ml) was taken and added 19 μL of Hank's Buffer salt solution along with 1 μL of the test drug (200 times concentrated) in a 24 well plate and incubated at 37° C. for 1 hour, 3 minutes before the end of test compound incubation, 0.25 mM Ca^++/Mg^++ were added. Then, 0.3 μg/ml A23187 (Sigma Chem, USA) was added and incubated for further 10 min at 37° C. The reaction was stopped by adding 80 μL of cold methanol and centrifuged to remove cell debris (J Pharmacol Exp Ther. 297:267, 2001). The samples were analysed for LTB4 release using LTB4ELISA kits (Assay Design Inc., USA). The amount of LTB4 released was quantified and percent inhibition of LTB4 release was calculated with respect to the difference between the A23187 stimulated and negative control cells, to compute IC50 values.

[2] = biological target: T1, recombinant 5-Lox (Homo sapiens, UniProt P09917); assay: Assay for 5-Lipoxygenase Activity; assay type: biochemical; conditions: arachidonic acid, absorbance at 236 nm (AUC), range stated for the group of compounds tested, read-out: 5-1, poxygenase inhibition IC50
T1 sequence (P09917 1-674): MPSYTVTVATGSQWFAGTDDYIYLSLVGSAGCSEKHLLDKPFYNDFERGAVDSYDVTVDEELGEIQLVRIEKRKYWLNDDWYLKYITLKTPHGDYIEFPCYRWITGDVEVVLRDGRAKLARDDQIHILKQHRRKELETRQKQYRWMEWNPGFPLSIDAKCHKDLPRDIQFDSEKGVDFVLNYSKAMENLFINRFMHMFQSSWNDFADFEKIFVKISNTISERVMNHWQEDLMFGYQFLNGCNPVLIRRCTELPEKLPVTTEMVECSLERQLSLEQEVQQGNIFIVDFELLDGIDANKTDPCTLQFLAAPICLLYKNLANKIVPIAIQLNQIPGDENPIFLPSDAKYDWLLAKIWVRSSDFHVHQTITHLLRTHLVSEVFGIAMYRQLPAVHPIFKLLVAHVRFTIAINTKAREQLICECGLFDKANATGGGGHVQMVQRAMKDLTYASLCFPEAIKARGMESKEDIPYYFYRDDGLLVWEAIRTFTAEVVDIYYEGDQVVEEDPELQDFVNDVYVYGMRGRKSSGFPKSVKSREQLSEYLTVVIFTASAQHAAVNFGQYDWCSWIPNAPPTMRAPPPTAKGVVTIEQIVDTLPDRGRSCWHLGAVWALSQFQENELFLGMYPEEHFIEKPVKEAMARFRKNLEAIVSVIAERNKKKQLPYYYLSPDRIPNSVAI
Experimental: Assay for 5-Lipoxygenase Activity
In a 96 well UV-plate, 100 μl of phosphate buffer saline (PBS) containing DTT (200 μM), ATP (100 μM) and calcium chloride (100 μM) was added. To each well 0.5 μl of test drug (200 times concentrated) or vehicle was added, followed by 4 μl of recombinant 5-Lox (3 units/μl) and was incubated at 37° C. for 5 min. The reaction was initiated by adding 1 μl of 1 mM freshly prepared arachidonic acid and increase in absorbance was monitored at 236 nm for 10 min. (J Biol. Chem. 261:11512, 1986) A plot of absorbance verses time curve was prepared and area under curve (AUC) was computed for each well. Percent inhibition of AUC for different treatments was calculated with respect to the difference between the Arachidonic acid stimulated and negative control values, to compute IC50 values.

| SMILES | pIC50 [1] | pIC50 [2] |
| --- | --- | --- |
| CC1(C)OCC(C2OC3OC(C)(C)OC3C2NC(=S)Nc2ccc(F)cc2)O1 [Compound No. 101, 1,2;5,6-Di-O-isopropylidene-3-deoxy-3-{[(4-fluorophenyl)-amino]thiocarbonyl}-amino-α-D-glucofuranoside] | 4.52 to 6.89 |  |
| CC1(C)OCC(C2OC3OC(C)(C)OC3C2NC(=S)Nc2ccc(OCc3ccccc3)cc2)O1 [Compound No. 63, 1,2;5,6-Di-O-isopropylidene-3-deoxy-3-{[(4-benzyloxyphenyl)amino]thiocarbonyl}-amino-α-D-allofuranoside] |  | 5.00 to 6.52 |
| CC1(C)OCC(C2OC3OC(C)(C)OC3C2NC(=S)Nc2ccccc2F)O1 [Compound No. 103, 1,2;5,6-Di-O-isopropylidene-3-deoxy-3-{[(2-fluorophenyl)-amino]thiocarbonyl}-amino-α-D-glucofuranoside] | 4.52 to 6.89 | 5.00 to 6.52 |
| CC1(C)OCC(C2OC3OC(C)(C)OC3C2NC(=S)Nc2ccc(F)cc2)O1 [Compound No. 55, 1,2;5,6-Di-O-isopropylidene-3-deoxy-3-{[(4-fluorophenyl)-amino]thiocarbonyl}-amino-α-D-allofuranoside] |  | 5.00 to 6.52 |
| CC1(C)OCC(C2OC3OC(C)(C)OC3C2NC(=O)Cc2ccccc2C(F)(F)F)O1 [Compound No. 80, 1,2;5,6-Di-O-isopropylidene-3-deoxy-3-{[(2-trifluoromethylphenyl)-methyl]carbonyl}-amino-α-D-allofuranoside] | 4.52 to 6.89 | 5.00 to 6.52 |
| CC1(C)O[C@H]2O[C@H]([C@H]3COC(C)(C)O3)[C@@H](NC(=S)Nc3ccccc3[N+](=O)[O-])[C@H]2O1 [Compound No. 67, 1,2;5,6-Di-O-isopropylidene-3-deoxy-3-{[(2-nitrophenyl)-amino]thiocarbonyl}-amino-α-D-allofuranoside] |  | 5.00 to 6.52 |
| CC1(C)OCC(C2OC3OC(C)(C)OC3C2NC(=O)Cc2cccc(Cl)c2)O1 [Compound No. 84, 1,2;5,6-Di-O-isopropylidene-3-deoxy-3-{[(3-chlorophenyl)-methyl]carbonyl}-amino-α-D-allofuranoside] | 4.52 to 6.89 | 5.00 to 6.52 |
| CC1(C)OCC(C2OC3OC(C)(C)OC3C2NC(=O)Cc2ccc(Cl)c(Cl)c2)O1 [Compound No. 100, 1,2;5,6-Di-O-isopropylidene-3-deoxy-3-{[(3,4-dichlorophenyl)-methyl]carbonyl}-amino-α-D-allofuranoside] | 4.52 to 6.89 | 5.00 to 6.52 |
| CC1(C)OCC(C2OC3OC(C)(C)OC3C2NC(=S)Nc2ccc(C#N)cc2)O1 [Compound No. 68, 1,2;5,6-Di-O-isopropylidene-3-deoxy-3-{[(4-cyanophenyl)-amino]thiocarbonyl}-amino-α-D-allofuranoside] |  | 5.00 to 6.52 |
| CC1(C)O[C@H]2O[C@H]([C@H]3COC(C)(C)O3)[C@@H](NC(=S)Nc3ccc(Cl)c(Cl)c3)[C@H]2O1 [Compound No. 60, 1,2;5,6-Di-O-isopropylidene-3-deoxy-3-{[(3,4-dichlorophenyl)-amino]thiocarbonyl}-amino-α-D-allofuranoside] |  | 5.00 to 6.52 |
